# Key:
# AMP deaminase 3 = target: T1, AMP deaminase 3 (Homo sapiens, UniProt Q01432); assay: Inhibitory activity against porcine heart or recombinant human E-type AMPDA
# T1 sequence (Q01432 whole entry): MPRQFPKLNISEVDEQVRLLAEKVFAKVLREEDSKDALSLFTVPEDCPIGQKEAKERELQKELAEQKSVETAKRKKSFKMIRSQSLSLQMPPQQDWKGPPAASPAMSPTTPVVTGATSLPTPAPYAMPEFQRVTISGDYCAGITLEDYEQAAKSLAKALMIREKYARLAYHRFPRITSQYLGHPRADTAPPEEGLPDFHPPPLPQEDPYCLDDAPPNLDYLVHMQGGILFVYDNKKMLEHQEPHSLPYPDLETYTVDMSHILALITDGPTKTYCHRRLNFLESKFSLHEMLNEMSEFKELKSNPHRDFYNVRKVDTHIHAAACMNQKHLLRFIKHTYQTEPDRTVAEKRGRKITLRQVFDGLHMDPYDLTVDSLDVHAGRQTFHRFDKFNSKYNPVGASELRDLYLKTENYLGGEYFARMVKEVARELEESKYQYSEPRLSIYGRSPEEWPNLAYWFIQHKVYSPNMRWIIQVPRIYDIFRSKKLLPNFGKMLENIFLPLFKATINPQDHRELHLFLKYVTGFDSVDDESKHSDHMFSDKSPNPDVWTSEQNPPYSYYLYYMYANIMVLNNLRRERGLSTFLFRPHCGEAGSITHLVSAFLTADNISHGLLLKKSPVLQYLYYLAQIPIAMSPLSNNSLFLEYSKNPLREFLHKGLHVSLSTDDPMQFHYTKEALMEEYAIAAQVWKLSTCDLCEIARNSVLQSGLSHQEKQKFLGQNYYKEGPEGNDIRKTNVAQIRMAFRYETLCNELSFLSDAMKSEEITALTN
# Adenosine deaminase = target: T2, Adenosine deaminase (Bos taurus, UniProt P56658); assay: Inhibitory activity against calf intestinal Adenosine deaminase (ADA)
# T2 sequence (P56658 whole entry): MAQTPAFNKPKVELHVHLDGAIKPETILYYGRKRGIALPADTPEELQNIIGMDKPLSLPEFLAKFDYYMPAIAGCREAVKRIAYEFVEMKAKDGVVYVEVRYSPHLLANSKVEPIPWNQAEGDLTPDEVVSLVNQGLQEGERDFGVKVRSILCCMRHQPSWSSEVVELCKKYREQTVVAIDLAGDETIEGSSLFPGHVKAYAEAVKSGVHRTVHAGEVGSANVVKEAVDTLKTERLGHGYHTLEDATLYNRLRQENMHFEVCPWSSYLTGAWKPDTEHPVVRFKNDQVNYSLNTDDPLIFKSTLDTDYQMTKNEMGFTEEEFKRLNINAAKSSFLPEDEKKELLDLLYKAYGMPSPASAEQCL
SMILES,Ki (AMP deaminase 3),Ki (Adenosine deaminase)
CC(CCCCn1cnc2c1NC=NCC2O)(C(=O)O)C(=O)O (centres undefined),6 µM,> 7.5 µM
CC(CCCCn1cnc2c1NC=NCC2O)(C(=O)OCc1ccccc1)C(=O)OCc1ccccc1 (centres undefined),5.2 µM,> 7.5 µM
CCOC(=O)C(CCCCn1cnc2c1N=CNCC2O)(Cc1ccccc1)C(=O)OCC (centres undefined),2.6 µM,> 7.5 µM
CCOC(=O)C(CCCCn1cnc2c1N=CNCC2O)(Cc1ccccc1C(F)(F)F)C(=O)OCC (centres undefined),0.36 µM,> 7.5 µM
CC(CCCCn1cnc2c1N=CNCC2O)(C(=O)O)C(=O)NCCc1ccccc1 (centres undefined),2.1 µM,> 7.5 µM
CC(CCCCn1cnc2c1NC=NCC2O)(C(N)=O)C(=O)O (centres undefined),7.8 µM,> 7.5 µM
O=C(O)C(CCCCn1cnc2c1NC=NCC2O)(Cc1ccccc1C(F)(F)F)C(=O)O (centres undefined),0.041 µM,> 7.5 µM
O=C(O)C(CCCCn1cnc2c1NC=NCC2O)(Cc1ccc(C(F)(F)F)cc1)C(=O)O (centres undefined),0.04 µM,> 7.5 µM
CC(CCCCn1cnc2c1NC=NCC2O)(C(=O)O)C(=O)NC1CCCCC1 (centres undefined),5.2 µM,> 7.5 µM
O=C(O)C(CCCCn1cnc2c1NC=NCC2O)C(=O)O (centres undefined),5.1 µM,> 7.5 µM
CC(CCCCn1cnc2c1NC=NCC2O)(Cc1cccc(C(F)(F)F)c1)C(=O)O (centres undefined),1.2 µM,> 7.5 µM
O=C(O)CCCCCn1cnc2c1N=CNCC2O (centres undefined),4.2 µM,
O=C(OCc1ccccc1)C(CCCCn1cnc2c1N=CNCC2O)(Cc1ccccc1C(F)(F)F)C(=O)OCc1ccccc1 (centres undefined),0.25 µM,> 7.5 µM
O=C(O)C(CCCCn1cnc2c1NC=NCC2O)(Cc1cccc(C(F)(F)F)c1)C(=O)O (centres undefined),0.029 µM,> 7.5 µM
CC(CCCCn1cnc2c1NC=NCC2O)(C(=O)O)C(=O)OCc1ccccc1 (centres undefined),0.9 µM,> 7.5 µM
CCOC(=O)C(C)(CCCCn1cnc2c1NC=NCC2O)C(=O)OCC (centres undefined),44.8 µM,> 500 µM
O=C(O)C(CCCCn1cnc2c1N=CNCC2O)C(=O)NCc1ccc(Cl)cc1 (centres undefined),1.3 µM,> 7.5 µM
O=C(O)C(CCCCn1cnc2c1N=CNCC2O)C(=O)NCc1ccccc1 (centres undefined),2.4 µM,> 7.5 µM
O=C(O)C(CCCCn1cnc2c1N=CNCC2O)C(=O)OCc1ccccc1 (centres undefined),0.36 µM,> 7.5 µM
O=C(O)C(CCCCn1cnc2c1N=CNCC2O)(Cc1ccccc1)C(=O)O (centres undefined),0.17 µM,> 7.5 µM
